Results published in patent publication US6355799B1, “Substituted benzene compounds, process for their preparation, and herbicidal and defoliant compositions containing them” (ISK Americas Incorporated, priority 1997, dated 2002).

How the values were obtained:
Format in all cases: in vivo
[1] = tested on: field corn (Zea mays L., var. Dekalb 535, CORN); experiment: Post-emerge test, crop safety; conditions: rating scale 0-100 (0 no damage, 100 complete death), 14 days after application
Summary of the method: (§1)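 Fourteen days after spraying, crop and weed injury was graded visually from 0, no effect, to 100, every plant dead. Test substances were dissolved in acetone and applied at 15–1000 g ai/ha with a flat-fan nozzle. Application was either pre-emergence, one day after sowing, or post-emergence at the 2–3 leaf stage.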

[2] = tested on: upland rice (Oryza sp., var. Tebonnet, RICE); experiment: Post-emerge test, crop safety; conditions: rating scale 0-100 (0 no damage, 100 complete death), 14 days after application
Summary of the method: as §1

[3] = tested on: redroot pigweed (Amaranthus retroflexus, AMARE); experiment: Post-emerge test, greenhouse herbicide activity screening; conditions: rating scale 0-100 (0 no damage, 100 complete death), 14 days after application
Summary of the method: (§2)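 Applied at 15–1000 g ai/ha from acetone in 187 l/ha spray volume. Post-emergence applications included 0.25% v/v non-ionic surfactant and reached plants sown 8–21 days before. Pre-emergence applications were incorporated by surface watering. Efficacy or crop damage was rated on a 0–100 scale after 14 days.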

[4] = tested on: ivyleaf morningglory (Ipomoea hederacea, IPOHE); experiment: as above; conditions: rating scale 0-100 (0 no damage, 100 complete death), 14 days after application
Summary of the method: as §2

[5] = tested on: lambsquarters (Chenopodium album, CHEAL); experiment: as above; conditions: rating scale 0-100 (0 no damage, 100 complete death), 14 days after application
Summary of the method: as §2

[6] = tested on: barnyardgrass (Echinochloa crus-galli, ECHCG); experiment: as above; conditions: rating scale 0-100 (0 no damage, 100 complete death), 14 days after application
Summary of the method: as §2

[7] = tested on: velvetleaf (Abutilon theophrasti, ABUTH); experiment: as above; conditions: rating scale 0-100 (0 no damage, 100 complete death), 14 days after application
Summary of the method: as §2

[8] = tested on: johnsongrass (Sorghum halepense, SORHA); experiment: as above; conditions: rating scale 0-100 (0 no damage, 100 complete death), 14 days after application
Summary of the method: as §2

[9] = tested on: large crabgrass (Digitaria sanguinalis, DIGSA); experiment: as above; conditions: rating scale 0-100 (0 no damage, 100 complete death), 14 days after application
Summary of the method: as §2

[10] = tested on: green foxtail (Setaria viridis, SETVI); experiment: as above; conditions: rating scale 0-100 (0 no damage, 100 complete death), 14 days after application
Summary of the method: as §2

[11] = tested on: sicklepod (Cassia obtusifolia, CASOB); experiment: as above; conditions: rating scale 0-100 (0 no damage, 100 complete death), 14 days after application
Summary of the method: as §2

[12] = tested on: field corn (Zea mays L., var. Dekalb 535, CORN); experiment: Pre-emerge test, crop safety; conditions: rating scale 0-100, 14 days after application
Summary of the method: (§3)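 Compounds in acetone were track-sprayed at 15-1000 g ai/ha (187 l/ha) on sandy loam pots: pre-emerge one day after seeding, post-emerge at 2-3 leaf stage with 0.25% v/v non-ionic surfactant. Phytotoxicity was rated 14 days later on a 0 (no damage) to 100 (complete death) scale.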

[13] = tested on: upland rice (Oryza sp., var. Tebonnet, RICE); experiment: Pre-emerge test, crop safety; conditions: rating scale 0-100, 14 days after application
Summary of the method: as §3

[14] = tested on: ivyleaf morningglory (Ipomoea hederacea, IPOHE); experiment: Pre-emerge test, greenhouse herbicide activity screening; conditions: rating scale 0-100, 14 days after application
Summary of the method: as §1

[15] = tested on: lambsquarters (Chenopodium album, CHEAL); experiment: as above; conditions: rating scale 0-100, 14 days after application
Summary of the method: as §1

[16] = tested on: barnyardgrass (Echinochloa crus-galli, ECHCG); experiment: as above; conditions: rating scale 0-100, 14 days after application
Summary of the method: as §1

[17] = tested on: velvetleaf (Abutilon theophrasti, ABUTH); experiment: as above; conditions: rating scale 0-100, 14 days after application
Summary of the method: as §1

[18] = tested on: johnsongrass (Sorghum halepense, SORHA); experiment: as above; conditions: rating scale 0-100, 14 days after application
Summary of the method: as §1

[19] = tested on: large crabgrass (Digitaria sanguinalis, DIGSA); experiment: as above; conditions: rating scale 0-100, 14 days after application
Summary of the method: as §1

[20] = tested on: green foxtail (Setaria viridis, SETVI); experiment: as above; conditions: rating scale 0-100, 14 days after application
Summary of the method: as §1

[21] = tested on: sicklepod (Cassia obtusifolia, CASOB); experiment: as above; conditions: rating scale 0-100, 14 days after application
Summary of the method: as §1

[22] = tested on: redroot pigweed (Amaranthus retroflexus, AMARE); experiment: as above; conditions: rating scale 0-100, 14 days after application
Summary of the method: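 Sandy loam pots; pre-emerge: sown 1 d pre-spray, surface-watered after, then bottom-watered. Post-emerge: sown 8–21 d before, 2–3 leaf stage, + 0.25% v/v NIS, bottom-watered. Acetone, 187 l/ha track spray, 15–1000 g ai/ha. 0–100 injury score, day 14.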

Compound: COc1c(Cl)cc(F)c(-n2c(=O)cc(C(F)(F)F)n(C)c2=O)c1CC(Cl)C(=O)OCC(Br)CBr (single isomer, unassigned) [14-31]
- Post-emerge phytotoxicity rating CORN (crop damage) ([1]; Rate 63 g ai/ha): 10
- Post-emerge phytotoxicity rating CORN (crop damage) ([1]; Rate 250 g ai/ha): 50
- Post-emerge phytotoxicity rating RICE (crop damage) ([2]; Rate 63 g ai/ha): 0
- Post-emerge phytotoxicity rating RICE (crop damage) ([2]; Rate 250 g ai/ha): 0
- Post-emerge Herbicidal Activity, phytotoxicity rating AMARE ([3]; Rate 63 g ai/ha): 90
- Post-emerge Herbicidal Activity, phytotoxicity rating AMARE ([3]; Rate 250 g ai/ha): 100
- Post-emerge Herbicidal Activity, phytotoxicity rating IPOHE ([4]; Rate 63 g ai/ha): 10
- Post-emerge Herbicidal Activity, phytotoxicity rating IPOHE ([4]; Rate 250 g ai/ha): 70
- Post-emerge Herbicidal Activity, phytotoxicity rating CHEAL ([5]; Rate 63 g ai/ha): 70
- Post-emerge Herbicidal Activity, phytotoxicity rating CHEAL ([5]; Rate 250 g ai/ha): 90
- Post-emerge Herbicidal Activity, phytotoxicity rating ECHCG ([6]; Rate 63 g ai/ha): 100
- Post-emerge Herbicidal Activity, phytotoxicity rating ECHCG ([6]; Rate 250 g ai/ha): 100
- Post-emerge Herbicidal Activity, phytotoxicity rating ABUTH ([7]; Rate 63 g ai/ha): 90
- Post-emerge Herbicidal Activity, phytotoxicity rating ABUTH ([7]; Rate 250 g ai/ha): 100
- Post-emerge Herbicidal Activity, phytotoxicity rating SORHA ([8]; Rate 63 g ai/ha): 0
- Post-emerge Herbicidal Activity, phytotoxicity rating SORHA ([8]; Rate 250 g ai/ha): 20
- Post-emerge Herbicidal Activity, phytotoxicity rating DIGSA ([9]; Rate 63 g ai/ha): 95
- Post-emerge Herbicidal Activity, phytotoxicity rating DIGSA ([9]; Rate 250 g ai/ha): 100
- Post-emerge Herbicidal Activity, phytotoxicity rating SETVI ([10]; Rate 63 g ai/ha): 0
- Post-emerge Herbicidal Activity, phytotoxicity rating SETVI ([10]; Rate 250 g ai/ha): 50
- Post-emerge Herbicidal Activity, phytotoxicity rating CASOB ([11]; Rate 63 g ai/ha): 50
- Post-emerge Herbicidal Activity, phytotoxicity rating CASOB ([11]; Rate 250 g ai/ha): 50
- Pre-emerge phytotoxicity rating, crop damage CORN ([12]; 63 g ai/ha): 0
- Pre-emerge phytotoxicity rating, crop damage CORN ([12]; 250 g ai/ha): 30
- Pre-emerge phytotoxicity rating, crop damage RICE ([13]; 63 g ai/ha): 0
- Pre-emerge phytotoxicity rating, crop damage RICE ([13]; 250 g ai/ha): 0
- Pre-emerge herbicidal activity, phytotoxicity rating IPOHE ([14]; 63 g ai/ha): 0
- Pre-emerge herbicidal activity, phytotoxicity rating IPOHE ([14]; 250 g ai/ha): 50
- Pre-emerge herbicidal activity, phytotoxicity rating CHEAL ([15]; 63 g ai/ha): 40
- Pre-emerge herbicidal activity, phytotoxicity rating CHEAL ([15]; 250 g ai/ha): 50
- Pre-emerge herbicidal activity, phytotoxicity rating ECHCG ([16]; 63 g ai/ha): 0
- Pre-emerge herbicidal activity, phytotoxicity rating ECHCG ([16]; 250 g ai/ha): 0
- Pre-emerge herbicidal activity, phytotoxicity rating ABUTH ([17]; 63 g ai/ha): 0
- Pre-emerge herbicidal activity, phytotoxicity rating ABUTH ([17]; 250 g ai/ha): 70
- Pre-emerge herbicidal activity, phytotoxicity rating SORHA ([18]; 63 g ai/ha): 0
- Pre-emerge herbicidal activity, phytotoxicity rating SORHA ([18]; 250 g ai/ha): 0
- Pre-emerge herbicidal activity, phytotoxicity rating DIGSA ([19]; 63 g ai/ha): 0
- Pre-emerge herbicidal activity, phytotoxicity rating DIGSA ([19]; 250 g ai/ha): 90
- Pre-emerge herbicidal activity, phytotoxicity rating SETVI ([20]; 63 g ai/ha): 0
- Pre-emerge herbicidal activity, phytotoxicity rating SETVI ([20]; 250 g ai/ha): 0
- Pre-emerge herbicidal activity, phytotoxicity rating CASOB ([21]; 63 g ai/ha): 0
- Pre-emerge herbicidal activity, phytotoxicity rating CASOB ([21]; 250 g ai/ha): 0
- Pre-emerge herbicidal activity, phytotoxicity rating AMARE ([22]; 63 g ai/ha): 70
- Pre-emerge herbicidal activity, phytotoxicity rating AMARE ([22]; 250 g ai/ha): 100
